Test results published in patent publication US8658637B2, “Glucocorticoid mimetics, methods of making them, pharmaceutical compositions and uses thereof” (Boehringer Ingelheim International GmbH, priority 2006, dated 2014).

What was measured:
[1] = system: IL-6 production in human foreskin fibroblast cells; assay: Inhibition of IL-6 Production in Fibroblasts (Cell Assay for Transrepression); format: cell-based; details: IL-1 stimulated human foreskin fibroblasts; for EC50: read-out: agonistic activity (EC50) by inhibiting IL-6 production in Fibroblasts; for Emax: read-out: efficacy by inhibiting IL-6 production in Fibroblasts
Experimental: 2. Inhibition of IL-6 Production in Fibroblasts (Cell Assay for Transrepression)
Human foreskin fibroblast cells produce IL-6 in response to stimulation by proinflammatory cytokine IL-1.
Human foreskin fibroblast cells (ATCC Cat. No. CRL-2429) are plated on 96 well plates at 5,000 cells per well the day before use, in Iscove's Modified Dulbecco's Media (GibcoBRL Life Technologies Cat. No. 12440-053) supplemented with 10% charcoal filtered FBS (Clonetech Cat. No. SH30068) and Gentamycin (GibcoBRL Life Technologies Cat. No. 15710-064). On the next day, media in the wells is replaced with fresh media. Cells are treated with IL-1 (rhIL-1α, R&D Systems Cat. No. 200-LA) to a final concentration of 1 ng/mL, and with test compounds to final concentrations of 10^−5 M to 10^−8 M, in a total volume of 200 μL per well. Samples are done in duplicates. […] Positive control wells receive IL-1 only and represent maximum (or 100%) amount of IL-6 production. Plates are incubated at 37° C. overnight (15 to 18 hours), and supernatants are harvested at the end of incubation. IL-6 levels in the supernatants are determined by the ELISA kits for IL-6 (MedSystems Diagnostics GmbH, Vienna, Austria, Cat. No. BMS213TEN) according to manufacture's instructions. The extent of inhibition of IL-6 by test compounds is expressed in percentage relative to positive controls. IC50 values of test compounds are derived by non-linear curve fitting.

Row | melting point [°C] | SMILES | EC50 [1] [nM] | Emax [1] [%]
1 | 137 to 141 | OC(c1cnc2c(cnn2-c2ccccc2)c1)(c1c[nH]c2ncccc12)C(F)(F)F (stereo not shown) | – | –
2 | – | Cn1ccc2c(C(O)(c3ccc4c(cnn4-c4ccc(F)cc4)c3)C(F)(F)F)cn(CC(N)=O)c2c1=O (stereo not shown) [2-(6-Methyl-7-oxo-3-{2,2,2-trifluoro-1-[1-(4-fluorophenyl)-1H-indazol-5-yl]-1-hydroxyethyl}-6,7-dihydropyrrolo[2,3-c]pyridin-1-yl)acetamide] | ≤ 1000 | > 50
3 | – | NC(=O)Cn1cc(C(O)(c2ccc3c(cnn3-c3ccc(F)cc3)c2)C(F)(F)F)c2ccnc(Cl)c21 (stereo not shown) [2-(7-Chloro-3-{2,2,2-trifluoro-1-[1-(4-fluorophenyl)-1H-indazol-5-yl]-1-hydroxyethyl}pyrrolo[2,3-c]pyridin-1-yl)acetamide] | ≤ 1000 | > 50
4 | – | NC(=O)Cn1cc(C(O)(c2ccc3c(cnn3-c3cccnc3)c2)C(F)(F)F)c2ccccc21 (stereo not shown) [2-{3-[2,2,2-Trifluoro-1-hydroxy-1-(1-pyridin-3-yl-1H-indazol-5-yl)ethyl]indol-1-yl}acetamide] | ≤ 1000 | > 50
5 | – | OCC(O)Cn1cc(C(O)(c2ccc3c(c2)nnn3-c2ccc(F)cc2)C(F)(F)F)c2ccccc21 (stereo not shown) [3-(3-{2,2,2-Trifluoro-1-[1-(4-fluorophenyl)-1H-benzotriazol-5-yl]-1-hydroxyethyl}indol-1-yl)propane-1,2-diol] | ≤ 1000 | > 50
6 | – | NC(=O)CCn1cc(C(O)(c2ccc3c(cnn3-c3ccc(F)cc3)c2)C(F)(F)F)c2ccccc21 (stereo not shown) [3-(3-{2,2,2-Trifluoro-1-[1-(4-fluorophenyl)-1H-indazol-5-yl]-1-hydroxyethyl}indol-1-yl)propionamide] | ≤ 1000 | > 50
7 | – | OCC(O)Cn1cc(C(O)(c2ccn3c(-c4ccc(F)cc4)ncc3c2)C(F)(F)F)c2ccccc21 (stereo not shown) [3-(3-{2,2,2-Trifluoro-1-[3-(4-fluorophenyl)imidazo[1,5-a]pyridin-7-yl]-1-hydroxyethyl}indol-1-yl)propane-1,2-diol] | ≤ 1000 | > 50
8 | – | OCC(O)Cn1cc(C(O)(c2ccc3c(cnn3-c3ccc(F)cc3)c2)C(F)(F)F)c2ccc(Br)cc21 (stereo not shown) [3-(6-Bromo-3-{2,2,2-trifluoro-1-[1-(4-fluorophenyl)-1H-indazol-5-yl]-1-hydroxyethyl}indol-1-yl)propane-1,2-diol] | ≤ 1000 | > 50
9 | – | COc1nccc2c(C(O)(c3ccc4c(cnn4-c4ccc(F)cc4)c3)C(F)(F)F)cn(CC(O)CO)c12 (stereo not shown) [3-(7-Methoxy-3-{2,2,2-trifluoro-1-[1-(4-fluorophenyl)-1H-indazol-5-yl]-1-hydroxyethyl}pyrrolo[2,3-c]pyridin-1-yl)propane-1,2-diol] | ≤ 1000 | > 50
10 | – | Cc1cc(C(O)(c2ccc3c(cnn3-c3ccc(F)cc3)c2)C(F)(F)F)c[nH]c1=O (stereo not shown) [3-Methyl-5-{2,2,2-trifluoro-1-[1-(4-fluorophenyl)-1H-indazol-5-yl]-1-hydroxyethyl}-1H-pyridin-2-one] | ≤ 1000 | > 50
11 | – | OCC(O)CCn1cc(C(O)(c2ccc3c(cnn3-c3ccc(F)cc3)c2)C(F)(F)F)c2ccccc21 (stereo not shown) [4-(3-{2,2,2-Trifluoro-1-[1-(4-fluorophenyl)-1H-indazol-5-yl]-1-hydroxyethyl}indol-1-yl)-butane-1,2-diol] | ≤ 1000 | > 50
12 | – | C=CCn1cc(C(O)(c2ccc3c(cnn3-c3ccc(F)cc3)c2)C(F)(F)F)c2ncn(C)c(=O)c21 (stereo not shown) [5-Allyl-3-methyl-7-{2,2,2-trifluoro-1-[1-(4-fluorophenyl)-1H-indazol-5-yl]-1-hydroxyethyl}-3,5-dihydropyrrolo[3,2-d]pyrimidin-4-one] | ≤ 1000 | > 50
13 | – | CC(C)NC(=O)n1ncc2cc(C(O)(c3cn(C)c4ccccc34)C(F)(F)F)ccc21 (stereo not shown) [5-[2,2,2-Trifluoro-1-hydroxy-1-(1-methyl-1H-indol-3-yl)ethyl]indazole-1-carboxylic acid isopropylamide] | ≤ 1000 | > 50
14 | – | Cc1cc(C(O)(c2ccc3c(cnn3-c3ccc(F)cc3)c2)C(F)(F)F)cn(CC(N)=O)c1=O (stereo not shown) [(3-Methyl-2-oxo-5-{2,2,2-trifluoro-1-[1-(4-fluorophenyl)-1H-indazol-5-yl]-1-hydroxyethyl}-2H-pyridin-1-yl)acetamide] | ≤ 1000 | > 50
15 | – | CCOC(=O)Cn1cc(C(O)(c2ccc3c(cnn3-c3ccc(F)cc3)c2)C(F)(F)F)c2ccccc21 (stereo not shown) [(3-{2,2,2-Trifluoro-1-[1-(4-fluorophenyl)-1H-indazol-5-yl]-1-hydroxyethyl}indol-1-yl)acetic acid ethyl ester] | ≤ 1000 | > 50
16 | – | O=C(O)Cn1cc(C(O)(c2ccc3c(cnn3-c3ccc(F)cc3)c2)C(F)(F)F)c2ccccc21 (stereo not shown) [(3-{2,2,2-Trifluoro-1-[1-(4-fluorophenyl)-1H-indazol-5-yl]-1-hydroxyethyl}indol-1-yl)acetic acid] | ≤ 1000 | > 50
17 | – | N#CCn1cc(C(O)(c2ccc3c(cnn3-c3ccc(F)cc3)c2)C(F)(F)F)c2cccnc21 (stereo not shown) [(3-{2,2,2-Trifluoro-1-[1-(4-fluorophenyl)-1H-indazol-5-yl]-1-hydroxyethyl}pyrrolo[2,3-b]pyridin-1-yl)acetonitrile] | ≤ 1000 | > 50
18 | – | C[C@@H](O)Cn1cc(C(O)(c2ccc3c(cnn3-c3ccc(F)cc3)c2)C(F)(F)F)c2ccccc21 (stereo partly drawn) [(R)-1-(3-{2,2,2-Trifluoro-1-[1-(4-fluorophenyl)-1H-indazol-5-yl]-1-hydroxyethyl}indol-1-yl)propan-2-ol] | ≤ 1000 | > 50
19 | – | C[C@H](O)Cn1cc(C(O)(c2ccc3c(cnn3-c3ccc(F)cc3)c2)C(F)(F)F)c2ccccc21 (stereo partly drawn) [(S)-1-(3-{2,2,2-Trifluoro-1-[1-(4-fluorophenyl)-1H-indazol-5-yl]-1-hydroxyethyl}indol-1-yl)propan-2-ol] | ≤ 1000 | > 50
20 | 91 to 93 | C=CCn1cc(C(O)(c2ccc3c(cnn3-c3ccc(F)cc3)c2)C(F)(F)F)c2ccn(C)c(=O)c21 (stereo not shown) [Example 75, 1-Allyl-6-methyl-3-{2,2,2-trifluoro-1-[1-(4-fluorophenyl)-1H-indazol-5-yl]-1-hydroxyethyl}-1,6-dihydropyrrolo[2,3-c]pyridin-7-one] | – | –
21 | – | CNC(=O)CCn1cc(C(O)(c2ccc3c(cnn3-c3ccc(F)cc3)c2)C(F)(F)F)c2ccccc21 (stereo not shown) [N-Methyl-3-(3-{2,2,2-trifluoro-1-[1-(4-fluorophenyl)-1H-indazol-5-yl]-1-hydroxyethyl}indol-1-yl)propionamide] | ≤ 1000 | > 50
